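Abbreviation: GI50, concentration required for 50% inhibition of growth. TGI is the concentration that stops growth completely.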
Columns and labels:
Experiment in all cases: growth of human tumour cells (NCI), 384-well format
NCI-H23 lung = test system: NCI-H23 lung
SR leukemia = test system: SR leukemia
MCF7 breast = test system: MCF7 breast
NCI-H522 lung = test system: NCI-H522 lung
HCT-15 colon = test system: HCT-15 colon
OVCAR-5 ovarian = test system: OVCAR-5 ovarian
SK-MEL-5 melanoma = test system: SK-MEL-5 melanoma
786-0 renal = test system: 786-0 renal
M14 melanoma = test system: M14 melanoma
HL-60(TB) leukemia = test system: HL-60(TB) leukemia
SK-MEL-28 melanoma = test system: SK-MEL-28 melanoma
PC-3 prostate = test system: PC-3 prostate
MDA-MB-468 breast = test system: MDA-MB-468 breast
MOLT-4 leukemia = test system: MOLT-4 leukemia
DU-145 prostate = test system: DU-145 prostate
SF-539 CNS = test system: SF-539 CNS
KM12 colon = test system: KM12 colon
OVCAR-4 ovarian = test system: OVCAR-4 ovarian
SK-MEL-2 melanoma = test system: SK-MEL-2 melanoma
MALME-3M melanoma = test system: MALME-3M melanoma
MDA-MB-231 breast = test system: MDA-MB-231 breast
K-562 leukemia = test system: K-562 leukemia
T-47D breast = test system: T-47D breast
OVCAR-3 ovarian = test system: OVCAR-3 ovarian
NCI/ADR-RES ovarian = test system: NCI/ADR-RES ovarian
UACC-62 melanoma = test system: UACC-62 melanoma
CCRF-CEM leukemia = test system: CCRF-CEM leukemia
SW-620 colon = test system: SW-620 colon
SF-268 CNS = test system: SF-268 CNS
ACHN renal = test system: ACHN renal
HCT-116 colon = test system: HCT-116 colon
SF-295 CNS = test system: SF-295 CNS
UACC-257 melanoma = test system: UACC-257 melanoma
RXF 393 renal = test system: RXF 393 renal
A549 NSCLC = test system: A549 NSCLC
UO-31 renal = test system: UO-31 renal
HOP-92 NSCLC = test system: HOP-92 NSCLC
COLO 205 colon = test system: COLO 205 colon
LOX IMVI melanoma = test system: LOX IMVI melanoma
HT29 colon = test system: HT29 colon
OVCAR-8 ovarian = test system: OVCAR-8 ovarian
CAKI-1 renal = test system: CAKI-1 renal
SNB-19 CNS = test system: SNB-19 CNS
NCI-H226 lung = test system: NCI-H226 lung
A498 renal = test system: A498 renal
TK-10 renal = test system: TK-10 renal
NCI-H322M lung = test system: NCI-H322M lung
HOP-62 NSCLC = test system: HOP-62 NSCLC
RPMI-8226 leukemia = test system: RPMI-8226 leukemia
U251 glioblastoma = test system: U251 glioblastoma
HCC-2998 colon = test system: HCC-2998 colon
NCI-H460 NSCLC = test system: NCI-H460 NSCLC
MDA-MB-435 melanoma = test system: MDA-MB-435 melanoma
SN12C renal = test system: SN12C renal
IGROV1 ovarian = test system: IGROV1 ovarian

CN[C@@H](C)C(=O)N[C@H]1CN(S(=O)(=O)c2cccc(S(=O)(=O)N3CC[C@H]4CC[C@@H](C(=O)NC(c5ccccc5)c5ccccc5)N4C(=O)[C@@H](NC(=O)[C@H](C)NC)C3)c2)CC[C@H]2CC[C@@H](C(=O)NC(c3ccccc3)c3ccccc3)N2C1=O
GI50 (NCI-H23 lung): 0.0315 µM
TGI (NCI-H23 lung): 0.459 µM
GI50 (SR leukemia): 0.0253 µM
TGI (SR leukemia): 2.82 µM
GI50 (MCF7 breast): 1.84 µM
TGI (MCF7 breast): 5.7 µM
GI50 (NCI-H522 lung): 0.0634 µM
TGI (NCI-H522 lung): 2.93 µM
GI50 (HCT-15 colon): > 100 µM
TGI (HCT-15 colon): > 100 µM
GI50 (OVCAR-5 ovarian): 19.1 µM
TGI (OVCAR-5 ovarian): 34.8 µM
GI50 (SK-MEL-5 melanoma): 0.11 µM
TGI (SK-MEL-5 melanoma): 0.422 µM
GI50 ([…]-0 renal): 23.5 µM
TGI (786-0 renal): 62.8 µM
GI50 (M14 melanoma): 20.3 µM
TGI (M14 melanoma): 44.9 µM
GI50 (HL-60(TB) leukemia): < 0.01 µM
TGI (HL-60(TB) leukemia): < 0.01 µM
GI50 (SK-MEL-28 melanoma): 12.6 µM
TGI (SK-MEL-28 melanoma): 25.2 µM
GI50 (PC-3 prostate): 15.5 µM
TGI (PC-3 prostate): 28.9 µM
GI50 (MDA-MB-468 breast): < 0.01 µM
TGI (MDA-MB-468 breast): 0.0196 µM
GI50 (MOLT-4 leukemia): 6.56 µM
TGI (MOLT-4 leukemia): 18.6 µM
GI50 (DU-145 prostate): 2.3 µM
TGI (DU-145 prostate): 16.7 µM
GI50 (SF-539 CNS): 16.6 µM
TGI (SF-539 CNS): 30.2 µM
GI50 (KM12 colon): 12.4 µM
TGI (KM12 colon): 24.9 µM
GI50 (OVCAR-4 ovarian): < 0.01 µM
TGI (OVCAR-4 ovarian): < 0.01 µM
GI50 (SK-MEL-2 melanoma): < 0.01 µM
TGI (SK-MEL-2 melanoma): < 0.01 µM
GI50 (MALME-3M melanoma): < 0.01 µM
TGI (MALME-3M melanoma): 0.0336 µM
GI50 (MDA-MB-231 breast): < 0.01 µM
TGI (MDA-MB-231 breast): < 0.01 µM
GI50 (K-562 leukemia): 4.42 µM
TGI (K-562 leukemia): 22.4 µM
GI50 (T-47D breast): 13.8 µM
TGI (T-47D breast): 28 µM
GI50 (OVCAR-3 ovarian): 2.17 µM
TGI (OVCAR-3 ovarian): 17.6 µM
GI50 (NCI/ADR-RES ovarian): 46.1 µM
TGI (NCI/ADR-RES ovarian): > 100 µM
GI50 (UACC-62 melanoma): 13.9 µM
TGI (UACC-62 melanoma): 27.5 µM
GI50 (CCRF-CEM leukemia): 0.0133 µM
TGI (CCRF-CEM leukemia): 1.46 µM
GI50 (SW-620 colon): 37.7 µM
TGI (SW-620 colon): > 100 µM
GI50 (SF-268 CNS): 13.2 µM
TGI (SF-268 CNS): 26 µM
GI50 (ACHN renal): > 100 µM
TGI (ACHN renal): > 100 µM
GI50 (HCT-116 colon): 23.7 µM
TGI (HCT-116 colon): 87.5 µM
GI50 (SF-295 CNS): 11 µM
TGI (SF-295 CNS): 23.6 µM
GI50 (UACC-257 melanoma): 11.7 µM
TGI (UACC-257 melanoma): 24.4 µM
GI50 (RXF 393 renal): < 0.01 µM
TGI (RXF 393 renal): 0.073 µM
GI50 (A549 NSCLC): 46.6 µM
TGI (A549 NSCLC): > 100 µM
GI50 (UO-31 renal): 76 µM
TGI (UO-31 renal): > 100 µM
GI50 (HOP-92 NSCLC): 0.242 µM
TGI (HOP-92 NSCLC): 2.69 µM
GI50 (COLO 205 colon): 12.5 µM
TGI (COLO 205 colon): 26 µM
GI50 (LOX IMVI melanoma): 13 µM
TGI (LOX IMVI melanoma): 25.7 µM
GI50 (HT29 colon): 16 µM
TGI (HT29 colon): 35.7 µM
GI50 (OVCAR-8 ovarian): 2.24 µM
TGI (OVCAR-8 ovarian): 19.3 µM
GI50 (CAKI-1 renal): > 100 µM
TGI (CAKI-1 renal): > 100 µM
GI50 (SNB-19 CNS): 16.6 µM
TGI (SNB-19 CNS): 30.2 µM
GI50 (NCI-H226 lung): 17.4 µM
TGI (NCI-H226 lung): 47.7 µM
GI50 (A498 renal): 35.8 µM
TGI (A498 renal): > 100 µM
GI50 (TK-10 renal): 44 µM
TGI (TK-10 renal): > 100 µM
GI50 (NCI-H322M lung): 16.6 µM
TGI (NCI-H322M lung): 30.3 µM
GI50 (HOP-62 NSCLC): 0.57 µM
TGI (HOP-62 NSCLC): 4.56 µM
GI50 (RPMI-8226 leukemia): 0.0326 µM
TGI (RPMI-8226 leukemia): 1.23 µM
GI50 (U251 glioblastoma): 12.6 µM
TGI (U251 glioblastoma): 25.9 µM
GI50 (HCC-2998 colon): 11.7 µM
TGI (HCC-2998 colon): 24 µM
GI50 (NCI-H460 NSCLC): 11.2 µM
TGI (NCI-H460 NSCLC): 25.5 µM
GI50 (MDA-MB-435 melanoma): 0.0478 µM
TGI (MDA-MB-435 melanoma): 16.8 µM
GI50 (SN12C renal): 20.8 µM
TGI (SN12C renal): 37.3 µM
GI50 (IGROV1 ovarian): 16.1 µM
TGI (IGROV1 ovarian): 30.3 µM
